Data from publication PMC5830590 (British Journal of Cancer, 2018).
“Also recorded” adds a separate entry of the source. Blank lines part the entries; values can stand above or below the molecule they belong to.

Assays:
[1] = Urinary excretion up to 25 h after start of copanlisib infusion; format: in vivo, human; conditions: 25 h urine collection interval; expansion cohort
[2] = Plasma pharmacokinetics on cycle 1, day 1; format: in vivo, human
[3] = system: patients with advanced malignancies; assay: Adverse events; format: in vivo, human
PIK3CA-mutated cells = conditions: preclinical studies; ref Liu et al, 2013; cited from earlier work
[4] = system: multidrug and toxin extrusion protein 2K (MATE2-K); conditions: in vitro; no reference given; cited from earlier work
[5] = system: class I PI3K (PI3K-δ and PI3K-α isoforms); conditions: pan-class I PI3K inhibitor; ref Liu et al, 2013; Haike et al, 2014; cited from earlier work
[6] = system: patients with advanced malignancies; assay: Dose escalation; format: in vivo, human
[7] = system: advanced or refractory solid tumours; assay: Tumour response by RECIST version 1.1; format: in vivo, human
[8] = system: patients with chronic lymphocytic leukaemia, small lymphocytic lymphoma and indolent non-Hodgkin’s lymphomas; conditions: ref US Food and Drug Administration, 2016; cited from earlier work

SMILES: COc1c(OCCCN2CCOCC2=O)ccc2c3n(c(=NC(=O)c4cnc(N)nc4)nc12)CCN3 [M-1]
- amount excreted into urine, % of dose [1]: ~0.9%
- median tmax of M-1, range across cohorts ([2]; copanlisib 0.8 mg kg^−1, cycle 1, day 1): 2 to 4 h
- effect of co-administration of CisGem on plasma exposure (Cmax and AUC(0–25)) ([2]; in vivo): no influence
- estimated geometric mean terminal half-life of M-1 versus copanlisib ([2]; in vivo): comparable with that of copanlisib

SMILES: COc1c(OCCCN2CCOCC2)ccc2c1N=C(NC(=O)c1cnc(N)nc1)N1CCN=C21 [copanlisib]
- TEAE any grade: decreased platelet count ([3]; all 50 patients): 80%
- TEAE any grade: fatigue ([3]; all 50 patients): 76%
- TEAE any grade: hyperglycaemia ([3]; all 50 patients): 80%
- TEAE any grade: nausea ([3]; all 50 patients): 86%
- copanlisib-related TEAE: anaemia ([3]; all 50 patients): 42%
- copanlisib-related TEAE: anorexia ([3]; all 50 patients): 56%
- copanlisib-related TEAE: decreased neutrophil count ([3]; all 50 patients): 62%
- copanlisib-related TEAE: decreased platelet count ([3]; all 50 patients): 58%
- copanlisib-related TEAE: fatigue ([3]; all 50 patients): 66%
- copanlisib-related TEAE: hyperglycaemia ([3]; all 50 patients): 76%
- copanlisib-related TEAE: hypertension ([3]; all 50 patients): 46%
- copanlisib-related TEAE: nausea ([3]; all 50 patients): 74%
- copanlisib-related TEAE: vomiting ([3]; all 50 patients): 36%
- deaths considered related to study treatment ([3]; all 50 patients): No deaths
- grade ⩾3 TEAE: decreased neutrophil count ([3]; all 50 patients): 62%
- grade ⩾3 TEAE: decreased platelet count ([3]; all 50 patients): 38%
- grade ⩾3 TEAE: fatigue ([3]; all 50 patients): 22%
- grade ⩾3 TEAE: hyperglycaemia ([3]; all 50 patients): 24%
- grade ⩾3 TEAE: hypertension ([3]; all 50 patients): 42%
- grade ⩾3 copanlisib-related AE: decreased neutrophil count ([3]; all 50 patients): 48%
- grade ⩾3 copanlisib-related AE: decreased platelet count ([3]; all 50 patients): 28%
- grade ⩾3 copanlisib-related AE: hypertension ([3]; all 50 patients): 38%
- patients who received insulin as remedial drug therapy ([3]; all 50 patients): 14 patients
- dose modification because of copanlisib-related TEAEs ([3]; all 50 patients, 26 patients): 52%
- serious AE ([3]; all 50 patients, 26 patients): 52%
- dose modifications (interruption or dose reduction) for copanlisib, gemcitabine or cisplatin due to TEAEs ([3]; all 50 patients, 45 patients): 90%
- at least one serious copanlisib-related AE ([3]; all 50 patients, eleven patients): 22%
- serious AE: abdominal pain ([3]; all 50 patients, four patients): 8%
- permanently discontinued copanlisib because of TEAEs ([3]; all 50 patients, nine patients): 18%
- serious copanlisib-related AE: grade 4 sinus tachycardia and grade 4 sepsis ([3]; all 50 patients, one patient): 2%
- serious AE: lung infection ([3]; all 50 patients, six patients): 12%
- TEAE of grade 3 hyperglycaemia ([3]; all 50 patients, ten patients): 20%
- serious AE: dehydration ([3]; all 50 patients, three patients): 6%
- TEAE of grade 4 hyperglycaemia ([3]; all 50 patients, two patients): 4%
- grade 4 serious TEAE: sepsis ([3]; all 50 patients, two patients): 4%
- patients with infusion-related increases in plasma glucose and plasma insulin ([3]; all patients): ~80%
- signs of increased nephrotoxicity caused by intrarenal accumulation of cisplatin ([3]; patients treated with copanlisib plus cisplatin, data not shown): no signs of increased nephrotoxicity
- anti-tumour activity in PIK3CA-mutated cells (PIK3CA-mutated cells): anti-tumour activity
- amount excreted into urine, % of dose [1]: about 4.9%
- dose dependence of plasma exposure (Cmax and AUC) ([2]; dose range 0.6–0.8 mg kg^−1): nearly dose-proportional increase
- half-life ([2]; human, plasma, intravenous): 25 to 26 h
- effect of co-administration of CisGem on plasma exposure (Cmax and AUC(0–25)) ([2]; in vivo): No substantial differences; also recorded: no influence
- inhibition of MATE2-K [4]: strong inhibitor
- PI3K isoform selectivity [5]: predominant activity against PI3K-δ and PI3K-α isoforms
- RP2D of copanlisib in combination with CisGem ([6]; cisplatin 25 mg m^−2 + gemcitabine 1000 mg m^−2, days 1 and 8 of a 21-day cycle): 0.8 mg/kg
- RP2D of copanlisib in combination with gemcitabine ([6]; gemcitabine 1000 mg m^−2, days 1, 8 and 15 of a 28-day cycle): 0.8 mg/kg
- response rate in patients with BTC who had not received prior anti-cancer therapy ([7]; 4 out of 11 patients): 36%
- response in patients with BTC who had received prior CisGem or gemcitabine-containing chemotherapy ([7]; 12 patients): No response
- objective response rate overall ([7]; all 50 patients, all cohorts): 10%
- stable disease, patients ([7]; all 50 patients, 19 patients): 38%
- partial response, patients ([7]; all 50 patients, four patients): 8%
- complete response, patients ([7]; all 50 patients, one patient): 2%

SMILES: CC[C@H](Nc1ncnc2[nH]cnc12)c1nc2cccc(F)c2c(=O)n1-c1ccccc1 [idelalisib]
- rate of AEs in combination with other anti-cancer therapies [8]: increased rate of AEs, including deaths

The remaining lines, values ahead:

- influence of co-administration with copanlisib on PK ([2]; in vivo): not influenced
SMILES: O=c1ccn([C@@H]2O[C@H](CO)[C@@H](O)C2(F)F)c(=O)[nH]1 [dFdU, 2’,2’-difluorodeoxyuridine]

- influence of co-administration with copanlisib on PK ([2]; in vivo): not influenced
SMILES: Nc1ccn([C@@H]2O[C@H](CO)[C@@H](O)C2(F)F)c(=O)n1 [gemcitabine, reference compound]
